# Source: article PMC6424628 (Neuropharmacology, 2019)
# Assays:
# [1] = biological target: dopamine transporter (hDAT) (Homo sapiens, UniProt Q01959); experiment: [3H]DA uptake inhibition in COS-7 cells expressing hDAT; format: cell-based
# [2] = biological target: norepinephrine transporter (hNET) (Homo sapiens, UniProt P23975); experiment: [3H]NE uptake inhibition in COS-7 cells expressing hNET; format: cell-based
# Sequence of norepinephrine transporter (hNET) (P23975 whole entry): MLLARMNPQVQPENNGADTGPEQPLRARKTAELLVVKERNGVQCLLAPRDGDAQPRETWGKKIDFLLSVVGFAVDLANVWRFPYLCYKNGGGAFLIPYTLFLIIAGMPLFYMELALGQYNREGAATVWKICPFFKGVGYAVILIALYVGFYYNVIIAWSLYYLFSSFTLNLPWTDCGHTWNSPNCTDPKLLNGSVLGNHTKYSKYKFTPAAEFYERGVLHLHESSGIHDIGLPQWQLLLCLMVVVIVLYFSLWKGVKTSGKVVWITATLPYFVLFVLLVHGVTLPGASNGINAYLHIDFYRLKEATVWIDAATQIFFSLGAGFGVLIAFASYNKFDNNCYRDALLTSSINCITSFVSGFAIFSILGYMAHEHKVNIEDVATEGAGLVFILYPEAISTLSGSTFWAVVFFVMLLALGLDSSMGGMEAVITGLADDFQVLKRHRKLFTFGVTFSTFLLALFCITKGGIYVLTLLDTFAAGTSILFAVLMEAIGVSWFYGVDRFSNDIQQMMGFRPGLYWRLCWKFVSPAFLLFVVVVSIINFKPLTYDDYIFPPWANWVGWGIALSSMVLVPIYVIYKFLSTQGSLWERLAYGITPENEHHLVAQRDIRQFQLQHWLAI
# Sequence of dopamine transporter (hDAT) (Q01959 whole entry): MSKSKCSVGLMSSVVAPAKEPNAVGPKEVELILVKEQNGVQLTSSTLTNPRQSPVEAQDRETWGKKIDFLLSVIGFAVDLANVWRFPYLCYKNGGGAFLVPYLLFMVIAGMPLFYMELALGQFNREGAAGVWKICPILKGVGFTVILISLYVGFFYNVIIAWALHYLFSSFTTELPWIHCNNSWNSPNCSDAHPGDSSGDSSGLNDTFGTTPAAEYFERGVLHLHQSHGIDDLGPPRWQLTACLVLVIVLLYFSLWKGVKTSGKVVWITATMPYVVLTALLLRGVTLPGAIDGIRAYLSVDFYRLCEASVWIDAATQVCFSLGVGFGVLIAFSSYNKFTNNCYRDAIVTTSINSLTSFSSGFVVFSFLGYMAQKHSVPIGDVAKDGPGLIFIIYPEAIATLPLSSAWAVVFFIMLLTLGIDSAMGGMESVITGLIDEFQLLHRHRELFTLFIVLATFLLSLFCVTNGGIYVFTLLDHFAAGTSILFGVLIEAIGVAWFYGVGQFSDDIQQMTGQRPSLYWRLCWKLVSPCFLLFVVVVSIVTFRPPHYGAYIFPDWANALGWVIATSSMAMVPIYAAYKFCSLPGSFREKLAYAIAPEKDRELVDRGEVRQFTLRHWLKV
compound,measurement,setting,value
CC(N)CCc1ccccc1Cl (centres unmarked) [SK609],Ki,[1],5.7 ± 1.3 µM
same,Ki,[2],0.57 ± 0.11 µM
